Reference: publication PMC6327040, “A novel scaffold for EGFR inhibition: Introducing N-(3-(3-phenylureido)quinoxalin-6-yl) acrylamide derivatives” (Scientific Reports, 2019)

Tests used:
EGFRwt = EGFRwt (Homo sapiens, UniProt P00533); test: HTRF KinEASE-TK biochemical assay (TR-FRET), EGFRwt
Procedure: (§2) An artificial substrate peptide (TK-substrate from Cisbio) was phosphorylated by EGFR. After completion of the reaction (reaction times: 25 min for wild-type, 15 min for L858R, 20 min for T790M/L858R), the reaction was stopped by addition of a buffer containing EDTA as well as, an anti-phosphotyrosine antibody labeled with europium cryptate and streptavidin labeled with the fluorophore XL665. FRET between europium cryptate and XL665 was measured after an additional hour of incubation to quantify the phosphorylation of the substrate peptide. […] Kinase and inhibitor were preincubated for 30 min (EGFR-wt) and 1 h (EGFR-L858R and EGFR-L858R/T790M) before the reaction was started by addition of ATP and substrate peptide. An EnVision multimode plate reader (Perkin Elmer) was used to measure the fluorescence of the samples at 620 nm (Eu-labeled antibody) and 665 nm (XL665 labeled streptavidin) 50 μs after excitation at 320 nm. The quotient of both intensities for reactions made with eight different inhibitor concentrations was then analyzed using the Quattro Software Suite for IC50-determination. Each reaction was performed in duplicate, and at least three independent determinations of each IC50 were made.

EGFRL858R = EGFRL858R (Homo sapiens, UniProt P00533, L858R); test: HTRF KinEASE-TK biochemical assay (TR-FRET), EGFR-L858R
Procedure: as §2

EGFRL858R/T790M = EGFRL858R/T790M (Homo sapiens, UniProt P00533, L858R/T790M); test: HTRF KinEASE-TK biochemical assay (TR-FRET), EGFR-L858R/T790M; settings: for inhibitory activity on EGFRL858R/T790M (in words): enzymatic in vitro determination
Procedure: as §2

[1] = test system: patient-derived tumor cell panel; test: Patient-derived tumor cell panel screening (Oncotest); assay type: cell-based; settings: for tumor cell lines' growth inhibition / cytotoxic activity (in words): single screening concentration of 10 μM
Procedure: (§1) Based on this premise, the inhibitory activity of compounds 7a-m towards a patient-derived tumor cell panel[49] was evaluated, using a single screening concentration of 10 μM. […] In fact, it is worth mentioning that, although the data observed in a cellular assay have no direct correlation to EGFR enzymatic tests, this phenomenon is not unusual and is related to the nature of the assays itself. In enzymatic assays there is no influence of membrane permeability issues, while in cell viability assays compounds must penetrate the cell membrane and resist the cellular environment for long enough for the ligand-receptor interaction to occur and to trigger the biological activity.

BXF 1218L = test: PD tumor cell line growth inhibition; assay type: cell-based; settings: Bladder, read-out: % inhibition (cellular growth inhibition related to negative control)
Procedure: as §1

BXF T24 = test: PD tumor cell line growth inhibition; assay type: cell-based; settings: Bladder, read-out: % inhibition (cellular growth inhibition related to negative control)
Procedure: as §1

CNXF A172 = test: PD tumor cell line growth inhibition; assay type: cell-based; settings: Homo sapiens, A 172, Glioblastoma, read-out: % inhibition (cellular growth inhibition related to negative control)
Procedure: as §1

CXF Colo205 = test: PD tumor cell line growth inhibition; assay type: cell-based; settings: Homo sapiens, COLO 205, Colon, read-out: % inhibition (cellular growth inhibition related to negative control)
Procedure: as §1

CXF DIFI = test: PD tumor cell line growth inhibition; assay type: cell-based; settings: Homo sapiens, Colon, EGFRdel-exon19 expressed, read-out: % inhibition (cellular growth inhibition related to negative control)
Procedure: as §1

CXF HCT116 = test: PD tumor cell line growth inhibition; assay type: cell-based; settings: Homo sapiens, HCT-116, Colon, read-out: % inhibition (cellular growth inhibition related to negative control)
Procedure: as §1

CXF RKO = test: PD tumor cell line growth inhibition; assay type: cell-based; settings: Colon, read-out: % inhibition (cellular growth inhibition related to negative control)
Procedure: as §1

CXF SW620 = test: PD tumor cell line growth inhibition; assay type: cell-based; settings: Homo sapiens, SW-620, Colon, read-out: % inhibition (cellular growth inhibition related to negative control)
Procedure: as §1

GXA MKN45 = test: PD tumor cell line growth inhibition; assay type: cell-based; settings: Homo sapiens, MKN-45, Stomach, read-out: % inhibition (cellular growth inhibition related to negative control)
Procedure: as §1

GXF 251L = test: PD tumor cell line growth inhibition; assay type: cell-based; settings: Stomach, EGFRdel-exon19 expressed, read-out: % inhibition (cellular growth inhibition related to negative control)
Procedure: as §1

LIXF 575L = test: PD tumor cell line growth inhibition; assay type: cell-based; settings: Liver, read-out: % inhibition (cellular growth inhibition related to negative control)
Procedure: as §1

LXFA 629L = test: PD tumor cell line growth inhibition; assay type: cell-based; settings: Lung, read-out: % inhibition (cellular growth inhibition related to negative control)
Procedure: as §1

LXFA NCI-H1975 = test: PD tumor cell line growth inhibition; assay type: cell-based; settings: Homo sapiens, Lung, read-out: % inhibition (cellular growth inhibition related to negative control)
Procedure: as §1

LXFA PC9 = test: PD tumor cell line growth inhibition; assay type: cell-based; settings: Lung, EGFRdel-exon19 expressed, read-out: % inhibition (cellular growth inhibition related to negative control)
Procedure: as §1

LXFL 529L = test: PD tumor cell line growth inhibition; assay type: cell-based; settings: Lung, EGFR overexpressed, read-out: % inhibition (cellular growth inhibition related to negative control)
Procedure: as §1

LXFL H460 = test: PD tumor cell line growth inhibition; assay type: cell-based; settings: Homo sapiens, NCI-H460, Lung, read-out: % inhibition (cellular growth inhibition related to negative control)
Procedure: as §1

MAXF 401NL = test: PD tumor cell line growth inhibition; assay type: cell-based; settings: Breast, read-out: % inhibition (cellular growth inhibition related to negative control)
Procedure: as §1

MAXF MCF7 = test: PD tumor cell line growth inhibition; assay type: cell-based; settings: Homo sapiens, Breast, read-out: % inhibition (cellular growth inhibition related to negative control)
Procedure: as §1

MAXF MDA231 = test: PD tumor cell line growth inhibition; assay type: cell-based; settings: Homo sapiens, MDA-MB-231, Breast, read-out: % inhibition (cellular growth inhibition related to negative control)
Procedure: as §1

MEXF 1539L = test: PD tumor cell line growth inhibition; assay type: cell-based; settings: Melanoma, read-out: % inhibition (cellular growth inhibition related to negative control)
Procedure: as §1

MEXF 1737l = test: PD tumor cell line growth inhibition; assay type: cell-based; settings: Melanoma, read-out: % inhibition (cellular growth inhibition related to negative control)
Procedure: as §1

MEXF 276L = test: PD tumor cell line growth inhibition; assay type: cell-based; settings: Homo sapiens, MEXF276L, Melanoma, read-out: % inhibition (cellular growth inhibition related to negative control)
Procedure: as §1

OVXF 899L = test: PD tumor cell line growth inhibition; assay type: cell-based; settings: Ovary, read-out: % inhibition (cellular growth inhibition related to negative control)
Procedure: as §1

PAXF 1657l = test: PD tumor cell line growth inhibition; assay type: cell-based; settings: Pancreas, read-out: % inhibition (cellular growth inhibition related to negative control)
Procedure: as §1

PAXF 546L = test: PD tumor cell line growth inhibition; assay type: cell-based; settings: Pancreas, read-out: % inhibition (cellular growth inhibition related to negative control)
Procedure: as §1

PRXF DU145 = test: PD tumor cell line growth inhibition; assay type: cell-based; settings: Homo sapiens, DU-145, Prostate, read-out: % inhibition (cellular growth inhibition related to negative control)
Procedure: as §1

RXF 486L = test: PD tumor cell line growth inhibition; assay type: cell-based; settings: Kidney, read-out: % inhibition (cellular growth inhibition related to negative control)
Procedure: as §1

RXF 786-O = test: PD tumor cell line growth inhibition; assay type: cell-based; settings: Homo sapiens, 786-0, Kidney, read-out: % inhibition (cellular growth inhibition related to negative control)
Procedure: as §1

SXF1301L = test: PD tumor cell line growth inhibition; assay type: cell-based; settings: Sarcoma, read-out: % inhibition (cellular growth inhibition related to negative control)
Procedure: as §1

UXF 1138L = test: PD tumor cell line growth inhibition; assay type: cell-based; settings: Uterus, read-out: % inhibition (cellular growth inhibition related to negative control)
Procedure: as §1

[2] = enzymatic in vitro determination

Chain of EGFRwt (P00533 25-1210): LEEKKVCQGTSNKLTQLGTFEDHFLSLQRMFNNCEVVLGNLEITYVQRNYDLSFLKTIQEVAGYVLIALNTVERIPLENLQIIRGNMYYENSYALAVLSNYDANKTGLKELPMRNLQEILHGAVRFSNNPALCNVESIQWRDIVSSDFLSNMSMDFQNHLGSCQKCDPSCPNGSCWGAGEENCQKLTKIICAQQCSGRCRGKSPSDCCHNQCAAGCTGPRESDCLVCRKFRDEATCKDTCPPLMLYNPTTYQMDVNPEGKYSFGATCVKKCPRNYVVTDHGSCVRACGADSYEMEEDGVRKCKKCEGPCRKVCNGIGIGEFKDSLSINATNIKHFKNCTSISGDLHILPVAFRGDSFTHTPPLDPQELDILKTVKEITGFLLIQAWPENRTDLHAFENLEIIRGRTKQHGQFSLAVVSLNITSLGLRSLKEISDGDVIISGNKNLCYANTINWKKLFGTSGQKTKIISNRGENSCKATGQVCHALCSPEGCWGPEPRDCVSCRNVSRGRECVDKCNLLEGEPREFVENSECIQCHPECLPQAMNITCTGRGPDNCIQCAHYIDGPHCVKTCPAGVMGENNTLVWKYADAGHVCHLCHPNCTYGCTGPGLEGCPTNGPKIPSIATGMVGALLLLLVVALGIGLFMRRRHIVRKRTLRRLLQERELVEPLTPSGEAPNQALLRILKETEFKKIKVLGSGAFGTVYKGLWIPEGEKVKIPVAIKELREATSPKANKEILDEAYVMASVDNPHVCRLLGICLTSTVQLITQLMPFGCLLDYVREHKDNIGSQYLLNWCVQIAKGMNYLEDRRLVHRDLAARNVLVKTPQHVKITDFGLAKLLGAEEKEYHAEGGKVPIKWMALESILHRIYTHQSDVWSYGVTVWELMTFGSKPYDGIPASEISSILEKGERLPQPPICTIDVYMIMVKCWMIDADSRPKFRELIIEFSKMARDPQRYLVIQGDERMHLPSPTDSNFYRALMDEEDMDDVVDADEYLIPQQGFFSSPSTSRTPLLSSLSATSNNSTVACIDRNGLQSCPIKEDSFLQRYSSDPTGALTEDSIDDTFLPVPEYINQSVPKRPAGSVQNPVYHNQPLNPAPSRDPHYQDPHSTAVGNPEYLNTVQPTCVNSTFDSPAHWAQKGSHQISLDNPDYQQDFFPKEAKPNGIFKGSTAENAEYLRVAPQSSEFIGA
Chain of EGFRL858R/T790M (P00533 25-1210 T790M/L858R): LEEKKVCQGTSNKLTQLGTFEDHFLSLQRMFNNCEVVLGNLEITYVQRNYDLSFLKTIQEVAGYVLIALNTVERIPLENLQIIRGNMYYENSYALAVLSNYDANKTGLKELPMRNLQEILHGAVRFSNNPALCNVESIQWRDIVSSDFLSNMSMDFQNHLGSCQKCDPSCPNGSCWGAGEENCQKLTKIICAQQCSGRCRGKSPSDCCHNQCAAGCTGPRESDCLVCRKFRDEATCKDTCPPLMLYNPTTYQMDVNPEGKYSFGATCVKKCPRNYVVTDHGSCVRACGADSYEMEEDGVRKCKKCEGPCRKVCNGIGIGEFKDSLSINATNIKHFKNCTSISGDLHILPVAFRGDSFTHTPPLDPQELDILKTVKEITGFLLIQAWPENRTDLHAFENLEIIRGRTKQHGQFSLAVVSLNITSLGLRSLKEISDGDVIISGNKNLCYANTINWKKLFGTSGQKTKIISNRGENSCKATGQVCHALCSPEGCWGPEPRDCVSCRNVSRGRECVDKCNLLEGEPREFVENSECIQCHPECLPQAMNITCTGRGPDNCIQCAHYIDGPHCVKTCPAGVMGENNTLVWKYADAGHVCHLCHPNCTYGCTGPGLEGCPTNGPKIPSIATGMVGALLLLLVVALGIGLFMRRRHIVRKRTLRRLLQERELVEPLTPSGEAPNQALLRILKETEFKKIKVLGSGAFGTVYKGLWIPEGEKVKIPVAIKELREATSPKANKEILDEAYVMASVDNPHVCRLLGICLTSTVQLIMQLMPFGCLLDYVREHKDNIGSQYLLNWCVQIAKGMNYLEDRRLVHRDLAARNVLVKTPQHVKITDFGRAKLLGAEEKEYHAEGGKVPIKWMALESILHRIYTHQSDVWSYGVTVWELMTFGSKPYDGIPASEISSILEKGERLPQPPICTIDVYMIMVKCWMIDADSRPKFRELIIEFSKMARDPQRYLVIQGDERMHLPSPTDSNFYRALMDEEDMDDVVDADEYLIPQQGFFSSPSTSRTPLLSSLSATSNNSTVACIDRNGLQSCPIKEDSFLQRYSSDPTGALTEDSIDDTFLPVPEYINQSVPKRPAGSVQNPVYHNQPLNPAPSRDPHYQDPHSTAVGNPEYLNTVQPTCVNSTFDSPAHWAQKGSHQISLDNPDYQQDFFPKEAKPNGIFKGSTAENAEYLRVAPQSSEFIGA
Chain of EGFRL858R (P00533 25-1210 L858R): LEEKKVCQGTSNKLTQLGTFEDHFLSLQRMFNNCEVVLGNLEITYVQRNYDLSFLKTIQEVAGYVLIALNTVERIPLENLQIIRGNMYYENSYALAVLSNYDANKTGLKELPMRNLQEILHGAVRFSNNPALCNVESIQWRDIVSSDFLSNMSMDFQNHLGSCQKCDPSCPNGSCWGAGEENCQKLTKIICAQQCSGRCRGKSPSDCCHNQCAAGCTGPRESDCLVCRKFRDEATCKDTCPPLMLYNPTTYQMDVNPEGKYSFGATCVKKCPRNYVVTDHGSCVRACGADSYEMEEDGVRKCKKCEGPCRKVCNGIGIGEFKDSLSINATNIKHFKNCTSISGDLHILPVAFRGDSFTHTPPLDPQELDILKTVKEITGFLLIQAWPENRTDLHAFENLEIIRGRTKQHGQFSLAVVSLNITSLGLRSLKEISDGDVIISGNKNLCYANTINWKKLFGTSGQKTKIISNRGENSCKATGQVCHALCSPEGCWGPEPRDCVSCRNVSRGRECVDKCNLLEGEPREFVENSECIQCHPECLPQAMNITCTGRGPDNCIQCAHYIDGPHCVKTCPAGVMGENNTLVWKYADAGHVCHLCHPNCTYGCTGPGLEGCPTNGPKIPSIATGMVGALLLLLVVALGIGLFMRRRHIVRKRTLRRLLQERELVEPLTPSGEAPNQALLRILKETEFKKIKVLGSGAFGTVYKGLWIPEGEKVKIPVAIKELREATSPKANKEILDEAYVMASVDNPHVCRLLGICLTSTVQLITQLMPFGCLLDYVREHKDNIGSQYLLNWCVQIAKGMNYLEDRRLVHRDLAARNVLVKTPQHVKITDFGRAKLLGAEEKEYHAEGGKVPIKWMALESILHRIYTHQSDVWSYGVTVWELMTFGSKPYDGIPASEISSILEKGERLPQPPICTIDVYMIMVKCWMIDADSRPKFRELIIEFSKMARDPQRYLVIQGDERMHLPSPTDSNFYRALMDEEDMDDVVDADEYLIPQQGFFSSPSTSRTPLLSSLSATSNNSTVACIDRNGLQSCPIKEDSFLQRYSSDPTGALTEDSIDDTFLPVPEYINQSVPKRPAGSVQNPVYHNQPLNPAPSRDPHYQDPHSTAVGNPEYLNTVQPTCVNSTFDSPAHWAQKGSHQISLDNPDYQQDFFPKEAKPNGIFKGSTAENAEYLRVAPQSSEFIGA

## O=C(CCl)Nc1ccc2ncc(NC(=O)Nc3cccc(C(F)(F)F)c3)nc2c1 [Compound 7g, 2-chloro-N-(3-(3-(3-(trifluoromethyl)phenyl)ureido)quinoxalin-6-yl)acetamide]
other
  melting point: 260 to 263 °C
EGFRwt
  IC50: 179 ± 61 nM
EGFRwt; [2]
  inhibitory activity on EGFRwt (in words): weak activity
EGFRL858R
  IC50: 2100 ± 505 nM
EGFRL858R; [2]
  inhibitory activity on EGFRL858R (in words): weak activity
EGFRL858R/T790M
  IC50: 9830 ± 297 nM
  inhibitory activity on EGFRL858R/T790M (in words): no inhibitory activity

## C=CC(=O)Nc1ccc2ncc(NC(=O)Nc3ccccc3)nc2c1 [Compound 7h, N-(3-(3-phenylureido)quinoxalin-6-yl)acrylamide]
[1]; 10 μM, GXF 251L, CXF DiFi, LXFA PC9, LXFL 529L and LXFA NCI-H1975 cell lines, read-out: growth inhibition effect
  inhibition at 10 µM: 55 to 77%
[1]
  tumor cell lines' growth inhibition / cytotoxic activity (in words): important cytotoxic activity
BXF 1218L
  inhibition at 10 µM: 84%
BXF T24
  inhibition at 10 µM: 76%
CNXF A172
  inhibition at 10 µM: 86%
CXF Colo205
  inhibition at 10 µM: 56%
CXF DIFI
  inhibition at 10 µM: 77%
CXF HCT116
  inhibition at 10 µM: 92%
CXF RKO
  inhibition at 10 µM: 82%
CXF SW620
  inhibition at 10 µM: 82%
GXA MKN45
  inhibition at 10 µM: 8%
GXF 251L
  inhibition at 10 µM: 55%
LIXF 575L
  inhibition at 10 µM: 40%
LXFA 629L
  inhibition at 10 µM: 76%
LXFA NCI-H1975
  inhibition at 10 µM: 68%
LXFA PC9
  inhibition at 10 µM: 75%
LXFL 529L
  inhibition at 10 µM: 74%
LXFL H460
  inhibition at 10 µM: 33%
MAXF 401NL
  inhibition at 10 µM: 72%
MAXF MCF7
  inhibition at 10 µM: 76%
MAXF MDA231
  inhibition at 10 µM: 67%
MEXF 1539L
  inhibition at 10 µM: 93%
MEXF 1737l
  inhibition at 10 µM: 15%
MEXF 276L
  inhibition at 10 µM: 88%
OVXF 899L
  inhibition at 10 µM: 87%
PAXF 1657l
  inhibition at 10 µM: 89%
PAXF 546L
  inhibition at 10 µM: 58%
PRXF DU145
  inhibition at 10 µM: 91%
RXF 486L
  inhibition at 10 µM: 86%
RXF 786-O
  inhibition at 10 µM: 80%
SXF1301L
  inhibition at 10 µM: 89%
UXF 1138L
  inhibition at 10 µM: 91%
EGFRwt
  IC50: 25 ± 4 nM
EGFRL858R
  IC50: 18 ± 3 nM
EGFRL858R/T790M
  IC50: 1680 ± 1510 nM
  inhibitory activity on EGFRL858R/T790M (in words): weak inhibition

## C/C=C/C(=O)Nc1ccc2ncc(NC(=O)Nc3ccccc3)nc2c1 [Compound 7i, (E)-N-(3-(3-phenylureido)quinoxalin-6-yl)but-2-enamide]
other
  melting point: 273 to 276 °C
EGFRwt
  IC50: > 10000 nM
EGFRL858R
  IC50: 5580 ± 4160 nM
EGFRL858R/T790M
  IC50: > 10000 nM

## O=C(CCl)Nc1ccc2ncc(NC(=O)Nc3ccccc3)nc2c1 [Compound 7j, 2-chloro-N-(3-(3-phenylureido)quinoxalin-6-yl)acetamide]
other
  melting point: 249 to 252 °C
EGFRwt
  IC50: 123 ± 134 nM
EGFRL858R
  IC50: 270 ± 202 nM
EGFRL858R/T790M
  IC50: 823 ± 613 nM

## N#CCC(=O)Nc1ccc2ncc(NC(=O)Nc3ccccc3)nc2c1 [Compound 7k, 2-cyano-N-(3-(3-phenylureido)quinoxalin-6-yl)acetamide]
other
  melting point: 238 to 241 °C
EGFRwt
  IC50: 3120 ± 787 nM
EGFRL858R
  IC50: 445 ± 105 nM
EGFRL858R/T790M
  IC50: 6290 ± 2790 nM

## CN(C)C/C=C/C(=O)Nc1ccc2ncc(NC(=O)Nc3ccccc3)nc2c1 [Compound 7l, (E)-4-(dimethylamino)-N-(3-(3-phenylureido)quinoxalin-6-yl)but-2-enamide]
[1]
  tumor cell lines' growth inhibition / cytotoxic activity (in words): did not inhibit the Oncotest® tumor cell lines’ growth in a significant manner
EGFRwt
  IC50: 101 ± 12 nM
EGFRL858R
  IC50: 32 ± 14 nM
EGFRL858R/T790M
  IC50: 132 ± 49 nM

## C=CC(=O)Nc1ccc2ncc(NC(=O)Nc3ccc(F)c(Cl)c3)nc2c1 [Compound 7m, N-(3-(3-(3-chloro-4-fluorophenyl)ureido)quinoxalin-6-yl) acrylamide]
other
  melting point: 259 to 262 °C
EGFRwt
  IC50: > 10000 nM
EGFRL858R
  IC50: > 10000 nM
EGFRL858R/T790M
  IC50: > 10000 nM
